Experimental data from PubChem BioAssay AID1552 (Sanford-Burnham Center for Chemical Genomics, 2009).
Activity calls are given as the source filed them. No rule for the calls is given here.

What follows are compounds tested against Ubiquitin-conjugating enzyme E2 N (Homo sapiens) (UniProt P61088) (assay: UBE2N binders by NMR, biophysical, purified protein (AID 1552)). Details: NMR binding to purified UBE2N.
Chain of Ubiquitin-conjugating enzyme E2 N (Homo sapiens) (P61088 whole entry, looked up): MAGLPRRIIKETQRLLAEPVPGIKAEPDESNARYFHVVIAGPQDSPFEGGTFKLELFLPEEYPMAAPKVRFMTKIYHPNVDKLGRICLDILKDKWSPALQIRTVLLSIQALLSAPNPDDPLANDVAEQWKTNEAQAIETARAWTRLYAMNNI
In the case of `O=C(O)c1cnc2n(c1=O)CCS2`, the Kd is reported as > 4 mM (inactive).
With `O=C(NCc1cccc(Cl)c1)c1ccco1` the Kd was > 4 mM (inactive).
In the case of `NCc1ccc2sccc2c1`, the Kd is reported as > 4 mM (inactive).
In the case of `O=C1c2ccccc2C(=O)N1CCc1ccccn1`, the Kd is reported as > 4 mM (inactive).
In the case of `CC1(C)C2CC[C@]3(C)C(C(=O)C=C4[C@@H]5C[C@@](C)(C(=O)O)CC[C@]5(C)CC[C@]43C)[C@@]2(C)CC[C@@H]1O` (stereo partly specified), the Kd is reported as > 4 mM (inactive).
`COC(=O)Nc1nnc(-c2ccncc2)s1` was tested, and the Kd was > 4 mM (inactive).
In the case of `Clc1ccc2c(N3CCNCC3)ccnc2c1`, the Kd is reported as > 4 mM (inactive).
In the case of `Oc1ccc(C2SCCS2)cc1`, the Kd is reported as > 4 mM (inactive).
For `COc1ccc2c(c1OC)OC[C@@H](c1ccc(OC)c(OC)c1OC)C2`, the Kd was > 4 mM (inactive).
In the case of `Nc1nc(NCc2ccco2)nn1-c1ccccc1`, the Kd is reported as > 4 mM (inactive).
`OC[C@@H]1CCCN2CCCC[C@H]12` was tested, and the Kd was > 4 mM (inactive).
In the case of `COc1ccc(NS(=O)(=O)c2ccc(N)cc2)nn1`, the Kd is reported as > 4 mM (inactive).
With `O=C(O)CCCCCCCCCCCCC1C=CCC1` (stereo unspecified) the Kd was > 4 mM (inactive).
`CC(=O)n1c(N)nc2ccccc21` was tested, and the Kd was > 4 mM (inactive).
For `C(=N\n1cnnc1)/c1cccs1`, the Kd was > 4 mM (inactive).
With `CC(=O)Nn1cc2c(=O)n(C)c(=O)n(C)c2c1` the Kd was > 4 mM (inactive).
With `CCOC(=O)c1cc2ccccc2oc1=O` the Kd was > 4 mM (inactive).
`Cn1c(O)c(/C=C2\C=CC=N2)c(=O)[nH]c1=S` was tested, and the Kd was > 4 mM (inactive).
`Cc1cc(NC(=O)CS(=O)(=O)c2ccccc2)no1` was tested, and the Kd was > 4 mM (inactive).
With `CC(=O)O[C@@H]1CC2C(C)(C)C=CC(=O)[C@]2(C)C2CC[C@@]3(C)[C@H](c4ccoc4)OC(=O)C4OC43[C@@]21C` (stereo partly specified) the Kd was > 4 mM (inactive).
`CC(=O)c1ccc(N2C(=O)C(C(C)C)NC2=S)cc1` (stereo unspecified) was tested, and the Kd was > 4 mM (inactive).
With `O=C(O)CN1C(=O)c2ccc(C(=O)O)cc2C1=O` the Kd was > 4 mM (inactive).
With `O=C(Nc1nc2ccccc2s1)c1ccc(=O)[nH]n1` the Kd was > 4 mM (inactive).
With `Cc1cccc(C(C)C)c1NC(=O)c1cccnc1` the Kd was > 4 mM (inactive).
With `CN1C(=O)C(Cc2c[nH]c3ccccc23)C(=O)N(C)C1=O` the Kd was > 4 mM (inactive).
For `COC(=O)C1Cc2ccccc2N1` (stereo unspecified), the Kd was > 4 mM (inactive).
For `CCOc1ccc(C)cc1S(=O)(=O)n1ccc(C)n1`, the Kd was > 4 mM (inactive).
With `O=C(O)c1ccc2sccc2c1` the Kd was > 4 mM (inactive).
For `OCc1ccccc1N1CCOCC1`, the Kd was > 4 mM (inactive).
`Cc1cc(OC(=O)c2c(C)cc(O)cc2O)cc(O)c1C(=O)O` was tested, and the Kd was > 4 mM (inactive).
With `O=C(O)CCCC(=O)Nc1nccs1` the Kd was > 4 mM (inactive).
For `O=C(Nc1ccc(O)cc1)N1CCOCC1`, the Kd was > 4 mM (inactive).
With `COc1cccc(-c2nn(-c3ccccc3)cc2CO)c1` the Kd was > 4 mM (inactive).
With `CC12CN(CC#N)CC(C)(CN(CC#N)C1)C2=O` the Kd was > 4 mM (inactive).
For `COc1ccc(-c2cn[nH]c2N)c(OC)c1`, the Kd was > 4 mM (inactive).
For `CCc1cccc(C)c1NC(=O)c1cc(C)oc1C`, the Kd was > 4 mM (inactive).
With `O=C(O)CN1C(=O)c2cccc([N+](=O)[O-])c2C1=O` the Kd was > 4 mM (inactive).
In the case of `O=C1C2C3CCC(O3)C2C(=O)N1c1cccc(F)c1` (stereo unspecified), the Kd is reported as > 4 mM (inactive).
With `Cc1nc2ccccc2c(=O)n1/N=C/c1ccncc1` the Kd was > 4 mM (inactive).
`O=CN1CCN(C(=O)c2ccccc2F)CC1` was tested, and the Kd was > 4 mM (inactive).
With `Cc1ccc(N2C(=O)CC(=O)NC2=O)cc1` the Kd was > 4 mM (inactive).
With `OCc1ccc2nsnc2c1` the Kd was > 4 mM (inactive).
For `CC(=O)Nc1ccc(NC(=O)C2CC2)cc1`, the Kd was > 4 mM (inactive).
For `O=Cc1c(N2CCOCC2)nc2ccccn2c1=O`, the Kd was > 4 mM (inactive).
For `CC(C)CNc1cc(=O)n(C)c(=O)n1C`, the Kd was > 4 mM (inactive).
For `O=c1c2ccccc2nc2n1CCC2O` (stereo unspecified), the Kd was > 4 mM (inactive).
With `C/C(=C\CO)CC[C@H](C)CCC[C@H](C)CCCC(C)C` the Kd was > 4 mM (inactive).
In the case of `Nc1ccc(S(=O)(=O)N2CCCCC2)cc1`, the Kd is reported as > 4 mM (inactive).
`Cc1cc(C)n(/N=C\c2cccs2)c(=O)c1C(N)=O` was tested, and the Kd was > 4 mM (inactive).
`COc1ccc2c(c1)O[C@@H]1COc3cc(OC)c(OC)cc3[C@@H]1C2=O` was tested, and the Kd was > 4 mM (inactive).
In the case of `NC(=O)C1CCN(C(=S)Nc2ccccc2)CC1`, the Kd is reported as > 4 mM (inactive).
`CC(=O)Nc1ccc(NC(C)=O)cc1` was tested, and the Kd was > 4 mM (inactive).
For `CCOC(=O)Cn1cnc2sc3c(c2c1=O)CCC3`, the Kd was > 4 mM (inactive).
With `O=S(=O)(Nc1cccnc1Cl)c1ccccc1` the Kd was > 4 mM (inactive).
For `Cc1c(C(=O)Nc2ccccn2)oc2ccccc12`, the Kd was > 4 mM (inactive).
`Cc1cc(=O)cc(C)n1NC(N)=S` was tested, and the Kd was > 4 mM (inactive).
`Cc1nnc(SCc2ccc(F)cc2)s1` was tested, and the Kd was > 4 mM (inactive).
`C=C(C)[C@H]1CC=C(C(=O)O)CC1` was tested, and the Kd was > 4 mM (inactive).
`Cc1nc(-c2ccccc2)sc1C(N)=O` was tested, and the Kd was > 4 mM (inactive).
With `CCOc1ccc(C(=O)c2ccc(OC)c(O)c2O)cc1` the Kd was > 4 mM (inactive).
`O=C(O)C1CN(Cc2ccccc2)CCO1` (stereo unspecified) was tested, and the Kd was > 4 mM (inactive).
`O=C(Cc1ccccc1)Nc1c[nH]c(=O)[nH]c1=O` was tested, and the Kd was > 4 mM (inactive).
`CC(=O)CC1(O)C(=O)Nc2ccccc21` (stereo unspecified) was tested, and the Kd was > 4 mM (inactive).
`Cc1sc2nc(SC3CCOC3=O)[nH]c(=O)c2c1C` (stereo unspecified) was tested, and the Kd was > 4 mM (inactive).
With `O=C(c1ccc(N2CCNCC2)cc1)c1cccnc1` the Kd was > 4 mM (inactive).
In the case of `Oc1cc(O)c2c(c1)O[C@H](c1ccc(O)c(O)c1)[C@@H](O)C2`, the Kd is reported as > 4 mM (inactive).
`CC1=CC2C(C(C)C)CCC(C)(O)C2CC1` (stereo unspecified) was tested, and the Kd was > 4 mM (inactive).
In the case of `CC(NC(=O)c1ccco1)c1ccc2c(c1)OCCO2` (stereo unspecified), the Kd is reported as > 4 mM (inactive).
`N/C(=N/S(=O)(=O)c1cccs1)c1ccccc1` was tested, and the Kd was > 4 mM (inactive).
`O=C1CC(=O)N(Cc2ccco2)C(=S)N1` was tested, and the Kd was > 4 mM (inactive).
`Cn1c(=O)n(CC(=O)Nc2cccnc2)c2ccccc21` was tested, and the Kd was > 4 mM (inactive).
With `NC(=O)C1CCN(C(=S)c2ccccc2)CC1` the Kd was > 4 mM (inactive).
With `O=c1c(-c2ccc(O)cc2)coc2cc(O)ccc12` the Kd was > 4 mM (inactive).
In the case of `Nc1[nH]c(=S)ncc1S(=O)(=O)c1ccccc1`, the Kd is reported as > 4 mM (inactive).
`CNc1ccccc1C(=O)O` was tested, and the Kd was > 4 mM (inactive).
For `CCSc1nnc2[nH]c(=O)cc(C)n12`, the Kd was > 4 mM (inactive).
With `Cc1nc2cc(NC(=O)Nc3nccs3)ccc2n1C` the Kd was > 4 mM (inactive).
For `O=C(CCc1ccc(O)cc1)c1c(O)cc(O)cc1O[C@@H]1O[C@H](CO)[C@@H](O)[C@H](O)[C@H]1O`, the Kd was > 4 mM (inactive).
`CCOC(=O)CC1Sc2ccccc2NC1=O` (stereo unspecified) was tested, and the Kd was > 4 mM (inactive).
For `CSc1ccccc1NC(=O)c1cccnc1`, the Kd was > 4 mM (inactive).
In the case of `O=C(CSc1ccnc(=O)[nH]1)NCc1ccccc1`, the Kd is reported as > 4 mM (inactive).
In the case of `COc1c2occc2c(OC)c2c(=O)cc(C)oc12`, the Kd is reported as > 4 mM (inactive).
For `COc1c(C(=O)N2CCCC2)ccc2ccccc12`, the Kd was > 4 mM (inactive).
In the case of `O=C(O)CS(=O)(=O)c1ccccc1`, the Kd is reported as > 4 mM (inactive).
For `CC(=O)Oc1cc2c(C(C)=O)coc2c2ccccc12`, the Kd was > 4 mM (inactive).
For `C[n+]1cc2c3c(ccc2c2ccc4cc5c(cc4c21)OCO5)OCO3`, the Kd was > 4 mM (inactive).
For `Cc1ccccc1OCC(=O)O`, the Kd was > 4 mM (inactive).
`CN(C)S(=O)(=O)c1ccccc1C#N` was tested, and the Kd was > 4 mM (inactive).
In the case of `c1ccc2c(c1)ncn2CCn1cnc2ccccc21`, the Kd is reported as > 4 mM (inactive).
`CNC(=S)Nc1ccc(OC)cc1C` was tested, and the Kd was > 4 mM (inactive).
For `COc1cc2c(cc1-c1coc3c4c(c(OC)cc3c1=O)OC(C)(C)C=C4)OCO2`, the Kd was > 4 mM (inactive).
`COc1ccc(-c2oc3cc(O[C@H]4O[C@H](CO)[C@@H](O)[C@H](O)[C@H]4O)c(OC)c(O)c3c(=O)c2OC)cc1O` was tested, and the Kd was > 4 mM (inactive).
`Nc1ccc(OC(F)(F)F)cc1` was tested, and the Kd was > 4 mM (inactive).
With `Cc1nc2ccccc2c(=O)n1NC(=O)C1CCCCC1` the Kd was > 4 mM (inactive).
For `CCCCCC1C(=O)CCC1CC(=O)O` (stereo unspecified), the Kd was > 4 mM (inactive).
In the case of `O=C(NCc1cccnc1)c1ccccn1`, the Kd is reported as > 4 mM (inactive).
For `O=C1CSC(c2ccc3c(c2)OCO3)N1` (stereo unspecified), the Kd was > 4 mM (inactive).
In the case of `O=C(O)/C=C/C(=O)Nc1ccccc1C(F)(F)F`, the Kd is reported as > 4 mM (inactive).
With `CN(C)C(=S)Nc1ccccc1N1CCOCC1` the Kd was > 4 mM (inactive).
For `O=C(O)C1CSC2(CCCCC2)N1` (stereo unspecified), the Kd was > 4 mM (inactive).
In the case of `O=C(Nc1cccc(C(F)(F)F)c1)c1cccnc1`, the Kd is reported as > 4 mM (inactive).
`S=C(NCc1cccnc1)NC1CC1` was tested, and the Kd was > 4 mM (inactive).
With `CNC(=O)c1cc(C)c(-c2ccccc2)s1` the Kd was > 4 mM (inactive).
In the case of `COC(=O)c1c(C)cc(OC)cc1O`, the Kd is reported as > 4 mM (inactive).
With `O=C(Nc1nc2c(s1)CCCC2)c1cccnc1` the Kd was > 4 mM (inactive).
`CC(=O)N1CCN(c2ccc(N)cc2)CC1` was tested, and the Kd was > 4 mM (inactive).
In the case of `CC[C@@]1(O)C[C@H](O[C@H]2C[C@H](N(C)C)[C@H](O)[C@H](C)O2)c2c(cc3c(c2O)C(=O)c2c(O)cccc2C3=O)[C@H]1C(=O)OC`, the Kd is reported as > 4 mM (inactive).
With `CNS(=O)(=O)c1cccs1` the Kd was > 4 mM (inactive).
`Cn1nc(C(=O)Nc2cccnc2)c2ccccc2c1=O` was tested, and the Kd was > 4 mM (inactive).
For `COC(=O)c1ccc2ncccc2c1`, the Kd was > 4 mM (inactive).
In the case of `O=C(Nc1ccc2c(c1)OCO2)c1cnn2cccnc12`, the Kd is reported as > 4 mM (inactive).
In the case of `O=C(c1cccnc1Cl)N1CCOCC1`, the Kd is reported as > 4 mM (inactive).
In the case of `Cc1nnsc1C(=O)Nc1ccc(C(N)=O)cc1`, the Kd is reported as > 4 mM (inactive).
`O=S(=O)(NCc1ccco1)c1cccc2cccnc12` was tested, and the Kd was > 4 mM (inactive).
`O=C(Cc1cccs1)N1CCOCC1` was tested, and the Kd was > 4 mM (inactive).
For `O=C1c2ccccc2C(=O)N1/N=C/c1ccc[nH]1`, the Kd was > 4 mM (inactive).
For `COC(=O)c1c(OC)cc2c(c1C)Oc1c(Cl)c(O)c(Cl)c(C)c1C(=O)O2`, the Kd was > 4 mM (inactive).
With `Cc1nccc(-c2cccc(N)c2)n1` the Kd was > 4 mM (inactive).
With `O=C(O)c1ccc2nccnc2c1` the Kd was > 4 mM (inactive).
`O=c1nc(NCc2ccco2)sc2ncccc12` was tested, and the Kd was > 4 mM (inactive).
With `Cc1n[nH]c(C)c1-c1ccccc1C(=O)O` the Kd was > 4 mM (inactive).
